For series [1] the following is noted: 298.2 K; 101.33 kPa; Liquid; Vibrating tube method.
Series [2] is described as follows: refractive index (Na D-line) (dimensionless). The settings on record: 298.2 K; 101.33 kPa; Liquid; Standard Abbe refractometry.
Series [3] in a line: refractive index (Na D-line) (dimensionless); wn = mass fraction of the nth substance listed. The settings on record: 298.2 K, 81.5 kPa, Liquid, Standard Abbe refractometry.

Broadly, the mass density is the mass of a sample divided by its volume. For orientation: refractive index means the speed of light in vacuum divided by its phase velocity in the sample.

Where “and” joins values, the source holds several entries; their conditions need not be identical. Equal entries are not always repeated. ± gives the expanded uncertainty stated by the source.

`CC(C)c1ccccc1` [isopropylbenzene]: in series [1], the mass density turned out to be 857.54 ± 1.7 kg/m3. For the same compound, in series [2], the refractive index was 1.49005 ± 0.0014.
With `CC(C)c1ccccc1` [isopropylbenzene] + O, the refractive index is 1.48845 ± 0.0014 in series [3] (w2 = 0.0006); 1.48875 ± 0.0014 and 1.48855 ± 0.0014 in series [3] (w2 = 0.0008); 1.49001 ± 0.0014 in series [3] (w2 = 0.0009); 1.4885 ± 0.0014 in series [3] (w2 = 0.001); 1.48855 ± 0.0014 in series [3] (w2 = 0.0016); 1.333 ± 0.0014 in series [3] (w2 = 0.9996).
Consider `O` [water], for which, in series [2], the refractive index is 1.3325 ± 0.0014.

These data come from the NIST ThermoML archive (doi:10.1021/acs.jced.8b01202).
